Experimental data published in the NIST ThermoML archive (doi:10.1021/acs.jced.8b00132).
“And” between values parts separate entries of the source, which are not always exact repeats. Equal entries are not always repeated. Numbers after ± are expanded uncertainties.

Details: Gas, transient hot wire

O=C(C(F)(F)C(F)(F)F)C(F)(C(F)(F)F)C(F)(F)F [dodecafluoro-2-methylpentan-3-one]
Details | thermal conductivity
499.92 K, 25604 kPa | 0.05225 ± 0.0013 W/m/K
499.93 K, 870 kPa | 0.02694 ± 0.0017 W/m/K
499.93 K, 6552 kPa | 0.0387 ± 0.00092 W/m/K
499.93 K, 13400 kPa | 0.04487 ± 0.0011 W/m/K
499.93 K, 18421 kPa | 0.04818 ± 0.0012 W/m/K
499.94 K, 869 kPa | 0.0272 ± 0.0017 W/m/K
499.94 K, 18421 kPa | 0.0482 ± 0.0012 W/m/K
499.95 K, 5597 kPa | 0.03741 ± 0.00089 W/m/K
499.96 K, 2952 kPa | 0.03132 ± 0.0019 W/m/K
499.96 K, 3620 kPa | 0.0341 ± 0.0021 W/m/K
499.97 K, 25600 kPa | 0.05221 ± 0.0013 W/m/K
499.97 K, 25604 kPa | 0.05228 ± 0.0013 W/m/K
499.98 K, 645 kPa | 0.02717 ± 0.0017 W/m/K
499.99 K, 10173 kPa | 0.04254 ± 0.001 W/m/K
499.99 K, 13400 kPa | 0.04504 ± 0.0011 W/m/K
499.99 K, 13402 kPa | 0.04506 ± 0.0011 W/m/K
499.99 K, 18421 kPa | 0.04841 ± 0.0012 W/m/K
500 K, 646 kPa | 0.02728 ± 0.0017 W/m/K
500 K, 2952 kPa | 0.03119 ± 0.0019 W/m/K
500 K, 3286 kPa | 0.03306 ± 0.002 W/m/K and 0.03284 ± 0.002 W/m/K
500 K, 6554 kPa | 0.03863 ± 0.00092 W/m/K
500 K, 6555 kPa | 0.03872 ± 0.00092 W/m/K
500 K, 8108 kPa | 0.04046 ± 0.00096 W/m/K
500 K, 10172 kPa | 0.04249 ± 0.001 W/m/K
500.01 K, 1594 kPa | 0.02714 ± 0.00089 W/m/K
500.01 K, 2129 kPa | 0.02838 ± 0.0017 W/m/K
500.02 K, 1594 kPa | 0.02737 ± 0.0009 W/m/K
500.02 K, 2129 kPa | 0.0285 ± 0.0018 W/m/K
500.02 K, 2565 kPa | 0.02947 ± 0.0018 W/m/K
500.02 K, 2566 kPa | 0.0295 ± 0.0018 W/m/K
500.02 K, 8108 kPa | 0.04041 ± 0.00096 W/m/K
500.02 K, 18425 kPa | 0.0483 ± 0.0012 W/m/K
500.05 K, 419 kPa | 0.02753 ± 0.0017 W/m/K
500.06 K, 419 kPa | 0.02752 ± 0.0017 W/m/K
500.07 K, 10171 kPa | 0.04243 ± 0.001 W/m/K
500.08 K, 870 kPa | 0.02705 ± 0.0017 W/m/K and 0.02701 ± 0.0017 W/m/K
500.08 K, 6554 kPa | 0.03889 ± 0.00093 W/m/K and 0.03865 ± 0.00092 W/m/K
500.08 K, 8107 kPa | 0.04045 ± 0.00096 W/m/K
500.08 K, 18421 kPa | 0.04829 ± 0.0012 W/m/K
500.09 K, 2952 kPa | 0.03151 ± 0.0019 W/m/K
500.1 K, 2952 kPa | 0.03143 ± 0.0019 W/m/K
500.1 K, 8107 kPa | 0.04058 ± 0.00097 W/m/K
500.1 K, 13402 kPa | 0.04498 ± 0.0011 W/m/K
500.12 K, 644 kPa | 0.02715 ± 0.0017 W/m/K
500.13 K, 645 kPa | 0.02741 ± 0.0017 W/m/K
500.13 K, 1594 kPa | 0.02735 ± 0.0009 W/m/K
500.14 K, 2565 kPa | 0.0296 ± 0.0018 W/m/K
500.15 K, 1594 kPa | 0.02739 ± 0.0009 W/m/K
500.15 K, 10171 kPa | 0.04243 ± 0.001 W/m/K
500.16 K, 419 kPa | 0.02764 ± 0.0017 W/m/K
500.16 K, 10174 kPa | 0.04246 ± 0.001 W/m/K
500.16 K, 13402 kPa | 0.04495 ± 0.0011 W/m/K
500.17 K, 6553 kPa | 0.03885 ± 0.00092 W/m/K
500.17 K, 8107 kPa | 0.04052 ± 0.00096 W/m/K
500.17 K, 8287 kPa | 0.04057 ± 0.00097 W/m/K
500.17 K, 13401 kPa | 0.04512 ± 0.0011 W/m/K
500.18 K, 6551 kPa | 0.03865 ± 0.00092 W/m/K
500.18 K, 8108 kPa | 0.04052 ± 0.00096 W/m/K
500.18 K, 8283 kPa | 0.0406 ± 0.00097 W/m/K
500.2 K, 419 kPa | 0.02743 ± 0.0017 W/m/K
500.23 K, 871 kPa | 0.02696 ± 0.0017 W/m/K
500.24 K, 872 kPa | 0.02702 ± 0.0017 W/m/K
500.24 K, 2563 kPa | 0.02975 ± 0.0018 W/m/K and 0.02983 ± 0.0018 W/m/K
500.25 K, 6550 kPa | 0.0387 ± 0.00092 W/m/K
500.25 K, 10172 kPa | 0.04247 ± 0.001 W/m/K
500.26 K, 6550 kPa | 0.0388 ± 0.00092 W/m/K
500.27 K, 8107 kPa | 0.04068 ± 0.00097 W/m/K and 0.04066 ± 0.00097 W/m/K
500.27 K, 8290 kPa | 0.04063 ± 0.00097 W/m/K
500.27 K, 8294 kPa | 0.04069 ± 0.00097 W/m/K
500.28 K, 643 kPa | 0.02732 ± 0.0017 W/m/K and 0.02714 ± 0.0017 W/m/K
500.33 K, 419 kPa | 0.02775 ± 0.0017 W/m/K
500.34 K, 418 kPa | 0.02786 ± 0.0017 W/m/K
500.35 K, 8106 kPa | 0.0405 ± 0.00096 W/m/K
500.36 K, 8300 kPa | 0.04074 ± 0.00097 W/m/K
500.37 K, 8107 kPa | 0.04059 ± 0.00097 W/m/K
500.4 K, 872 kPa | 0.02701 ± 0.0017 W/m/K
500.4 K, 874 kPa | 0.02698 ± 0.0017 W/m/K
500.43 K, 643 kPa | 0.02726 ± 0.0017 W/m/K
500.45 K, 643 kPa | 0.0272 ± 0.0017 W/m/K
500.46 K, 8304 kPa | 0.04072 ± 0.00097 W/m/K
500.46 K, 8307 kPa | 0.04066 ± 0.00097 W/m/K
500.48 K, 417 kPa | 0.02764 ± 0.0017 W/m/K
500.49 K, 417 kPa | 0.02771 ± 0.0017 W/m/K
500.58 K, 8309 kPa | 0.04075 ± 0.00097 W/m/K
